According to patent US4315026A, “Alkylpolyoxysulfinyl and alkylpolythiosulfinyl derivatives of carbamate esters” (priority 1980, dated 1982):
Read-outs that look alike come from different tables or passages of the source.

Experiments:
Type in all cases: in vivo
Swiss white mice = assay: Mammalian toxicity, oral, Swiss white mice (LD50); details: propylene glycol carrier
Method: (§1) For mice toxicity, the compound was dissolved in propyleneglycol or corn oil as a carrier and all compounds were tested at the level up to 1,000 mg/kg. All of the above noted compounds tested were lower in toxicity as compared with the parent compounds.
(§2) Mammalian toxicity was determined against Swiss white mice.

[1] = tested on: house flies, Musca domestica; assay: whole plant or invertebrate; details: read-out: House flies LD50
Method: In another series of tests, stock 1% concentrated solutions of each of the test compounds of Table I below, and of the commercial related carbamate ester insecticides methomyl, carbofuran and oxamyl, were made in acetone, and such solutions were diluted with acetone to a concentration of 0.001-0.8%. House flies were treated topically on the notum by 1 μl of each of the diluted acetone solutions and percent mortality was counted 24 hours after application.

[2] = Mammalian toxicity, oral, Swiss white mice (LD50); details: mouse, in vivo, propylene glycol carrier
Method: as §1, §2

[3] = topical on the notum, 1 μl of 0.001-0.8% acetone solutions, 24 hours, 60° F

| Compound | Mice LD50 (Swiss white mice) | LD50 [1, 3] | LD50 [2] | LD50 ([1]; topical, 24 h) |
| --- | --- | --- | --- | --- |
| 3-Methylphenyl N-(2-phenyl-1,3-dioxane-5-ylmethoxysulfinyl)-N-methylcarbamate [XVIII] | > 1,000 mg/kg |  |  |  |
| CSC(C)=NOC(=O)N(C)S(=O)OCCOS(=O)N(C)C(=O)ON=C(C)SC (centres unmarked) [Example I, N,N'-(1,2-ethanedioxysulfinyl)-bis (S-methyl N-methylcarbamoyloxy-thioacetimidate)] |  | 60 mg/kg | 52 mg/kg |  |
| CN(C(=O)Oc1cccc2c1OC(C)(C)C2)S(=O)OCCCOS(=O)N(C)C(=O)Oc1cccc2c1OC(C)(C)C2 (centres unmarked) [Example II, N,N'-(1,3-Propanedioxysulfinyl)-bis (2,3-dihydro-2,2-dimethylbenzofuranyl-7 methylcarbamate)] |  |  | 92 mg/kg | 17 mg/kg |
| CSC(C)=NOC(=O)N(C)S(=O)OCC1COC(C)(C)O1 (centres unmarked) [Example III, S-methyl N-(2,2-dimethyl-1,3-dioxolane-5-yl-methoxysulfinyl)-N-methylcarbamoyloxythioacetimidate] |  | 7 mg/kg | 84 mg/kg |  |
| CSC(C)=NOC(=O)N(C)[S+]([O-])SCCS[S+]([O-])N(C)C(=O)ON=C(C)SC (centres unmarked) [Example VIII, N,N'-(1,2-Ethanedithiosulfinyl)-bis (S-methyl N-methylcarbamoyloxy thioacetimidate)] |  | 75 mg/kg | 250 mg/kg |  |
| CN(C(=O)Oc1cccc2c1OC(C)(C)C2)[S+]([O-])SCCS[S+]([O-])N(C)C(=O)Oc1cccc2c1OC(C)(C)C2 (centres unmarked) [IX] |  |  | 87 mg/kg | 36 mg/kg |
| C=CCOCC(COS(=O)N(C)C(=O)ON=C(C)SC)OS(=O)N(C)C(=O)ON=C(C)SC (centres unmarked) [XI, N,N'-(3-Allyloxy-1,2-propanedioxysulfinyl)-bis (S-methyl N-methylcarbamoyloxythioacetimidate)] |  | 40 mg/kg | 50 to 80 mg/kg |  |
| C=CCOC(COS(=O)N(C)C(=O)ON=C(C)SC)COS(=O)N(C)C(=O)ON=C(C)SC (centres unmarked) [XII, N,N'-(2-Allyloxy-1,3-propanedioxysulfinyl)-bis (S-methyl N-methylcarbamoyloxythioacetimidate)] |  | < 50 mg/kg | 88 mg/kg |  |
| CSC(C)=NOC(=O)N(C)S(=O)OCC(COCc1ccccc1)OS(=O)N(C)C(=O)ON=C(C)SC (centres unmarked) [XIII, N,N'-(3-Benzyloxy-1,2-propanedioxysulfinyl)-bis (S-methyl N-methylcarbamoyloxythioacetimidate)] |  | < 50 mg/kg | 50 to 100 mg/kg |  |
| CSC(C)=NOC(=O)N(C)S(=O)OCC(COC(C)C)OS(=O)N(C)C(=O)ON=C(C)SC (centres unmarked) [XIV, N,N'-(3-Isopropoxy-1,2-propanedioxysulfinyl)-bis (S-methyl N-methylcarbamoyloxythioacetimidate)] |  | 81.5 mg/kg | 170 mg/kg |  |
| CSC(C)=NOC(=O)N(C)S(=O)OCC12OCC3OC(C)(C)OC3C1OC(C)(C)O2 (stereo not drawn) [XVI, S-Methyl N-(2,3,4,5-di-O-isopropylidene-1-α-O-fructopyranosylsulfinyl)-N-methylcarbamoyloxythioacetimidate] |  | 50 mg/kg | 500 mg/kg |  |
| CSC(C)=NOC(=O)N(C)S(=O)OC1C2OC(C)(C)OC2COC12COC(C)(C)O2 (centres unmarked) [XVII, S-Methyl N-(1,2,4,5-di-O-isopropylidene-3-O-fructopyranosylsulfinyl)-N-methylcarbamoyloxythioacetimidate] |  | 115 mg/kg | 1000 mg/kg |  |
| C=CCOCC(COS(=O)N(C)C(=O)ON=C(SC)C(=O)N(C)C)OS(=O)N(C)C(=O)ON=C(SC)C(=O)N(C)C (centres unmarked) [XXIX, N,N'-(3-Allyloxy-1,2-propanedioxysulfinyl)-bis[S-methyl N-methylcarbamoyloxy-2-(N',N'-dimethylamino)-2-oxoethanimidothioate]] |  | 215 mg/kg | 12.5 to 25 mg/kg |  |
| CSC(=NOC(=O)N(C)S(=O)OC1COC(c2ccccc2)OC1)C(=O)N(C)C (centres unmarked) [XXVII, S-Methyl N-(2-phenyl-1,3-dioxane-5-ylmethoxysulfinyl)-N-methylcarbamoyloxy-2-(N',N'-dimethylamino)-2-oxoethanimidothioate] |  | 161 mg/kg | 25 mg/kg |  |
| CSC(=NOC(=O)N(C)S(=O)OCC1COC(C)(C)O1)C(=O)N(C)C (centres unmarked) [XXVIII, S-Methyl N-(2,2-dimethyl-1,3-dioxolane-5-ylmethoxysulfinyl)-N-methylcarbamoyloxy-2-(N'N'-dimethylamino)-2-oxoethanimidothioate] |  | 2.6 mg/kg | 31 mg/kg |  |
| CSC(=NOC(=O)N(C)S(=O)OCC12OCC3OC(C)(C)OC3C1OC(C)(C)O2)C(=O)N(C)C (stereo not drawn) [XXXIV, S-Methyl N-(2,3,4,5-Di-O-isopropylidene-1-α-O-fructopyranosylsulfinyl)-N-methylcarbamoyloxy-2-(N',N'-dimethylamino)-2-oxoethanimidothioate] |  | 20 mg/kg | 44 mg/kg |  |
| CSC(=NOC(=O)N(C)S(=O)OC1C(C2COC(C)(C)O2)OC2OC(C)(C)OC21)C(=O)N(C)C (centres unmarked) [XXXV, S-Methyl N-(1,2,5,6-di-O-isopropylidene-3-O-glucofuranosylsulfinyl) N-methylcarbamoyloxy-2-(N',N'-dimethylamino)-2-oxoethanimidothioate] |  | 26.5 mg/kg | 25 to 50 mg/kg |  |
| CN(C(=O)Oc1cccc2ccccc12)S(=O)OCC(COCc1ccccc1)OS(=O)N(C)C(=O)Oc1cccc2ccccc12 (centres unmarked) [XXXVIII, N,N'-(3-Benzyloxy-1,2-propanedioxysulfinyl)-bis(1-naphthyl methylcarbamate)] |  |  | > 1000 mg/kg |  |
| CN(C(=O)Oc1cccc2ccccc12)S(=O)OCC(COS(=O)N(C)C(=O)Oc1cccc2ccccc12)OS(=O)N(C)C(=O)Oc1cccc2ccccc12 (centres unmarked) [XXXX, N,N',N"-(1,2,3-Propanetrioxysulfinyl)-tris-(1-naphthyl methylcarbamate)] |  |  | > 1000 mg/kg |  |
| CN(C(=O)Oc1cccc2ccccc12)S(=O)OCC12OCC3OC(C)(C)OC3C1OC(C)(C)O2 (stereo not drawn) [XXXXI, 1-Naphthyl N-(2,3,4,5-di-O-isopropylidene-1-α-O-fructopyranosylsulfinyl)-N-methylcarbamate] |  |  | > 1000 mg/kg |  |
| CN(C(=O)Oc1cccc2ccccc12)S(=O)OC1C2OC(C)(C)OC2COC12COC(C)(C)O2 (stereo not drawn) [XXXXII, 1-Naphthyl N-(1,2,4,5-di-O-isopropylidene-3-α-O-fructopyranosylsulfinyl)-N-methylcarbamate] |  |  | > 1000 mg/kg |  |
| CC(C)Oc1ccccc1OC(=O)N(C)S(=O)OCC(COS(=O)N(C)C(=O)Oc1ccccc1OC(C)C)OS(=O)N(C)C(=O)Oc1ccccc1OC(C)C (centres unmarked) [XXXXIII, N,N',N"(1,2,3-Propanetrioxysulfinyl)-tris-(2-isopropoxyphenyl methylcarbamate)] |  |  | > 1000 mg/kg |  |
| CC(C)Oc1ccccc1OC(=O)N(C)S(=O)OCC12OCC3OC(C)(C)OC3C1OC(C)(C)O2 (stereo not drawn) [XXXXIV, 2-Isopropoxyphenyl N-(2,3,4,5-di-O-isopropylidene-1-α-O-fructopyranosylsulfinyl)-N-methylcarbamate] |  |  | > 1000 mg/kg |  |
| CNC(=O)Oc1cccc2c1OC(C)(C)C2 [carbofuran, reference compound] |  |  | 2 mg/kg | 6.7 mg/kg |
| CNC(=O)ON=C(C)SC [methomyl, reference compound] |  | 3.7 mg/kg |  |  |
| CNC(=O)ON=C(SC)C(=O)N(C)C [oxamyl, reference compound] |  | 3.6 mg/kg | 3.7 mg/kg |  |
